# Source: patent US8846710B2, “Method of preferentially inducing the biosynthesis of interferon” (3M Innovative Properties Company, priority 2005, dated 2014)
# How the values were obtained:
# interferon (α) (IFN-α) = test: Cytokine induction in human cells: IFN-α secreted by PBMC into culture media (ELISA); format: cell-based; conditions: for Maximal Response IFN / Minimum Effective Concentration IFN / minimal effective concentration: human PBMC; for Maximal Response IFN / Minimum Effective Concentration IFN: median where tested in more than one experiment; for minimal effective concentration / Maximal Response (pg/mL) IFN: Table 10; for minimal effective concentration: lowest tested concentration inducing IFN-α over usually 20 pg/mL, median where more than one experiment, read-out: Minimum Effective Concentration (μM) IFN; for Maximal Response (pg/mL) IFN: maximal response in dose response curve, * = below experimental background level, median
# Excerpt: (§1) Cytokine Induction in Human Cells
# (§2) An in vitro human blood cell system is used to assess cytokine induction. Activity is based on the measurement of interferon (α) and tumor necrosis factor (α) (IFN-α and TNF-α, respectively) secreted into culture media as described by Testerman et. al. in “Cytokine Induction by the Immunomodulators Imiquimod and S-27609”, Journal of Leukocyte Biology, 58, 365-372 (September, 1995).
# (§3) Blood Cell Preparation for Culture
# (§4) Whole blood from healthy human donors is collected by venipuncture into vacutainer tubes or syringes containing EDTA. Peripheral blood mononuclear cells (PBMC) are separated from whole blood by density gradient centrifugation using HISTOPAQUE-1077 (Sigma, St. Louis, Mo.) or Ficoll-Paque Plus (Amersham Biosciences Piscataway, N.J.). Blood is diluted 1:1 with Dulbecco's Phosphate Buffered Saline (DPBS) or Hank's Balanced Salts Solution (HBSS). Alternately, whole blood is placed in Accuspin (Sigma) or LeucoSep (Oreiner Bio-One, Inc., Longwood, Fla.) centrifuge frit tubes containing density gradient medium. The PBMC layer is collected and washed twice with DPBS or HBSS and re-suspended at 4×10^6 cells/mL in RPMI complete. The PBMC suspension is added to 96 well flat bottom sterile tissue culture plates containing an equal volume of RPMI complete media containing test compound.
# (§5) The compounds are solubilized in dimethyl sulfoxide (DMSO). The DMSO concentration should not exceed a final concentration of 1% for addition to the culture wells. The compounds are generally tested at concentrations ranging from 30-0.014 μM. Controls include cell samples with media only, cell samples with DMSO only (no compound), and cell samples with reference compound.
# (§6) The solution of test compound is added at 60 μM to the first well containing RPMI complete and serial 3 fold dilutions are made in the wells. The PBMC suspension is then added to the wells in an equal volume, bringing the test compound concentrations to the desired range (usually 30-0.014 μM). The final concentration of PBMC suspension is 2×10^6 cells/mL. The plates are covered with sterile plastic lids, mixed gently and then incubated for 18 to 24 hours at 37° C. in a 5% carbon dioxide atmosphere.
# (§7) Following incubation the plates are centrifuged for 10 minutes at 1000 rpm (approximately 200×g) at 4° C. The cell-free culture supernatant is removed and transferred to sterile polypropylene tubes. Samples are maintained at −30 to −70° C. until analysis. The samples are analyzed for IFN-α by ELISA and for TNF-α by IGEN/BioVeris Assay.
# (§8) Interferon (α) and Tumor Necrosis Factor (α) Analysis
# IFN-α concentration is determined with a human multi-subtype calorimetric sandwich ELISA (Catalog Number 41105) from PBL Biomedical Laboratories, Piscataway, N.J. Results are expressed in pg/mL.
# (§9) In total, the data output of the assay consists of concentration values of TNF-α and IFN-α (y-axis) as a function of compound concentration (x-axis).
# Analysis of the data has two steps. First, the greater of the mean DMSO (DMSO control wells) or the experimental background (usually 20 pg/mL for IFN-α and 40 pg/mL for TNF-α) is subtracted from each reading. If any negative values result from background subtraction, the reading is reported as “*”, and is noted as not reliably detectable. In subsequent calculations and statistics, “*”, is treated as a zero. Second, all background subtracted values are multiplied by a single adjustment ratio to decrease experiment to experiment variability. The adjustment ratio is the area of the reference compound in the new experiment divided by the expected area of the reference compound based on the past 61 experiments (unadjusted readings). […] The reference compound used is 2-[4-amino-2-ethoxymethyl-6,7,8,9-tetrahydro-α,α-dimethyl-1H-imidazo[4,5-c]quinolin-1-yl]ethanol hydrate (U.S. Pat. No. 5,352,784; Example 91) and the expected area is the sum of the median dose values from the past 61 experiments. […]
# [1] = tested on: tumor necrosis factor (α) (TNF-α); test: Cytokine induction in human cells: TNF-α secreted by PBMC into culture media (ORIGEN M-Series immunoassay); format: cell-based; parameters: key to Maximal Response (pg/mL) TNF / Maximal Response TNF: If any negative values result from background subtraction, the reading is reported as “*”, and is noted as not reliably detectable; conditions: for Minimum Effective Concentration TNF / Maximal Response TNF / minimal effective concentration: human PBMC; for Minimum Effective Concentration TNF: median where tested in more than one experiment; for Maximal Response TNF / Maximal Response (pg/mL) TNF: median; for minimal effective concentration / Maximal Response (pg/mL) TNF: Table 10; for minimal effective concentration: lowest tested concentration inducing TNF-α over usually 40 pg/mL, median where more than one experiment, read-out: Minimum Effective Concentration (μM) TNF; for Maximal Response (pg/mL) TNF: maximal response in dose response curve, * = below experimental background level
# Excerpt: as §1, §2, §3, §4, §5, §6, §7, §8
# The TNF-α concentration is determined by ORIGEN M-Series Immunoassay and read on an IGEN M-8 analyzer from BioVeris Corporation, formerly known as IGEN International, Gaithersburg, Md. The immunoassay uses a human TNF-α capture and detection antibody pair (Catalog Numbers AHC3419 and AHC3712) from Biosource International, Camarillo, Calif. Results are expressed in pg/mL.
# as §9
# Analysis of the data has two steps. First, the greater of the mean DMSO (DMSO control wells) or the experimental background (usually 20 pg/mL for IFN-α and 40 pg/mL for TNF-α) is subtracted from each reading. If any negative values result from background subtraction, the reading is reported as “*”, and is noted as not reliably detectable. In subsequent calculations and statistics, “*”, is treated as a zero. Second, all background subtracted values are multiplied by a single adjustment ratio to decrease experiment to experiment variability. The adjustment ratio is the area of the reference compound in the new experiment divided by the expected area of the reference compound based on the past 61 experiments (unadjusted readings). […]
# [2] = Table 11, * = TNF below experimental background of 40 pg/mL
Structure (SMILES),Maximal Response IFN (interferon (α) (IFN-α); Table 11),Minimum Effective Concentration IFN (interferon (α) (IFN-α); Table 11),Minimum Effective Concentration TNF ([1]; Table 11),"Maximal Response TNF [1, 2]",Maximal Response (pg/mL) IFN (interferon (α) (IFN-α)),other results
COCCc1nc2c(N)nc3ccccc3c2n1CCCCCCCCNC(=O)c1ccccc1 [Analog 119],1584 pg/mL,0.014 µM,0.014 µM,1995 pg/mL,,
CCc1nc2c(N)nc3cc(-c4cccnc4)ccc3c2n1CC1CCN(C(=O)C(C)C)CC1 [Analog 19],,,,,1686 pg/mL,minimal effective concentration (interferon (α) (IFN-α)): 0.12 µM; minimal effective concentration [1]: 1.11 µM; Maximal Response (pg/mL) TNF [1]: 619 pg/mL
CN(CCOCCn1c(CCO)nc2c(N)nc3ccccc3c21)S(C)(=O)=O [Example 133],8361 pg/mL,0.37 µM,>30 µM,*,,
CC(C)(O)Cn1c(CO)nc2c(N)nc3cc(-c4cccc(O)c4)ccc3c21 [Example 168],,,,,,minimal effective concentration (interferon (α) (IFN-α)): 0.37 µM; minimal effective concentration [1]: 10 µM
COCc1nc2c(N)nc3cc(-c4cncc(CO)c4)ccc3c2n1CC(C)(C)O [Analog 13],,,,,1771 pg/mL,minimal effective concentration (interferon (α) (IFN-α)): 0.12 µM; minimal effective concentration [1]: 3.33 µM; Maximal Response (pg/mL) TNF [1]: 8000 pg/mL
CCc1nc2c(N)nc3ccccc3c2n1CC(C)(C)CNC(=O)Nc1ccccc1 [Analog 90],922 pg/mL,0.014 µM,0.12 µM,2098 pg/mL,,
COCc1nc2c(N)nc3cc(-c4cccnc4)ccc3c2n1CC(C)(C)O [Analog 11],,,,,829 pg/mL,minimal effective concentration (interferon (α) (IFN-α)): 0.37 µM; minimal effective concentration [1]: 1.11 µM; Maximal Response (pg/mL) TNF [1]: 3445 pg/mL
Cc1nc2c(N)nc3ccccc3c2n1CCNS(C)(=O)=O [Analog 68],1610 pg/mL,0.12 µM,10 µM,820 pg/mL,,
CCNC(=O)NCCn1c(CC)nc2c(N)nc3ccccc3c21 [Analog 103],1031 pg/mL,3.33 µM,10 µM,3250 pg/mL,,
COCCc1nc2c(N)nc3ccccc3c2n1CCCCNC(=O)c1nccc2ccccc12 [Analog 112],2127 pg/mL,0.014 µM,0.04 µM,1462 pg/mL,,
CCCc1nc2c(N)nc3ccccc3c2n1CC(C)(C)NC(=O)NC(C)C [Analog 107],1428 pg/mL,1.11 µM,3.33 µM,6363 pg/mL,,
CCc1nc2c(N)nc3ccccc3c2n1CCNC(=O)CC(C)C [Analog 105],851 pg/mL,3.33 µM,30 µM,587 pg/mL,,
CCCCCCCCCCCCCCCC(=O)NCCOCCn1c(CCO)nc2c(N)nc3ccccc3c21 [Example 140],673 pg/mL,1.11 µM,>30 µM,*,,
"CC(C)Cn1c(CO)nc2c(N)nc3cccnc3c21 [Example 633, [4-Amino-1-(2-methylpropyl)-1H-imidazo[4,5-c][1,5]naphthyridin-2-yl]methanol]",,,,,,"Maximal Response IFN (interferon (α) (IFN-α); Table 12): 1592 pg/mL; Maximal Response TNF ([1]; Table 12, * = below the experimental background of 40 pg/mL): 363 pg/mL"
"CC(C)NC(=O)NCCn1c(CO)nc2c(N)nc3ccccc3c21 [Example 365, N-{2-[4-amino-2-(hydroxymethyl)-1H-imidazo[4,5-c]quinolin-1-yl]ethyl}-N′-isopropylurea]",1488 pg/mL,,,,,
COCCc1nc2c(N)nc3cc(-c4ccccc4)ccc3c2n1CCCN1CCCC1=O [Analog 21],,,,,1880 pg/mL,minimal effective concentration (interferon (α) (IFN-α)): 0.12 µM; minimal effective concentration [1]: 1.11 µM; Maximal Response (pg/mL) TNF [1]: 201 pg/mL
CC(C)(O)Cn1c(CO)nc2c(N)nc3cc(-c4cncc(CO)c4)ccc3c21 [Example 189],,,,,4357 pg/mL,
"Nc1nc2ccccc2c2c1nc(CCO)n2CCCNC(=O)c1cc2ccccc2cn1 [Example 2, N-{3-[4-Amino-2-(2-hydroxyethyl)-1H-imidazo[4,5-c]quinolin-1-yl]propyl}isoquinoline-3-carboxamide]",507 pg/mL,,,,,
Nc1nc2cc(-c3cncc(CO)c3)ccc2c2c1nc(CO)n2CC1CCCCC1 [Example 205],,,,,1087 pg/mL,
"CC(C)(N)Cn1c(CO)nc2c(N)nc3ccccc3c21 [Example 4, 1-(2-Amino-2-methylpropyl)-2-hydroxymethyl-1H-imidazo[4,5-c]quinolin-4-amine]",1893 pg/mL,,,,,
Nc1nc2cc(-c3cccc(C(=O)N4CCOCC4)c3)ccc2c2c1nc(CO)n2CC1CCCCC1 [Example 206],,,,,1266 pg/mL,
CC(C)C(=O)N1CCC(Cn2c(CO)nc3c(N)nc4cc(-c5cccnc5)ccc4c32)CC1 [Example 191],,,,,969 pg/mL,
